The text below walks through data of US7115589B2, “Purine derivatives” (ARIAD Pharmaceuticals, Inc., priority 1999, dated 2006).

In general, melting point refers to the temperature, or range, at which the solid turns liquid. Compound `CCOP(=O)(OCC)c1ccc(Nc2nc(C3CCCC3)nc3c2ncn3C(C)C)cc1` had a melting point of 117 to 118 °C.
